Measured values taken from patent US20250129070A1, “BIFUNCTIONAL ANDROGEN RECEPTOR COMPOUNDS” (priority 2023, published 2025).
pEC50, pIC50: −log10 of the molar value.

Key:
Type in all cases: cell-based
[1] = tested on: HEK-293 cells; assay: HEK-293 growth inhibition assay; settings: 3 days, CTG
Procedure, shortened: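 HEK-293 cells plated 24 hours before compound treatment, then exposed for 3 days at 37°C/5% CO2. Viability by CellTiter-Glo luminescence after 20 minutes at room temperature. IC50 from RLU versus concentration via 4-parameter logistic nonlinear regression.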

[2] = tested on: AR / CBP ternary complex; assay: Ternary complex formation assay (sandwich ELISA, AR capture / CBP detection) in VCaP cell lysates; settings: 1.5 hours treatment, sandwich ELISA (AR capture, CBP or p300 detection)
Procedure, shortened: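 VCaP cells (50K/well, 5% charcoal-stripped FBS, ≥3 days) treated with bifunctional compound for 1.5 h, then lysed 30 min at 4 °C. AR captured on anti-AR (AR 441) plates; bound CBP or p300 detected by rabbit mAb plus HRP secondary. QuantaRed chemifluorescence read at ex 570/em 585, immediately and at 5 and 15 min.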

[3] = tested on: VCaP cells; assay: VCaP growth inhibition assay; settings: 30 pM R1881, 9 days, CTG
Procedure, shortened: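 VCaP cells in phenol red-free DMEM/5% CSS, pre-incubated 72 h, then stimulated with R1881 (final 30 pM) and treated with 1:5 serial dilutions (final 100 nM to 10 fM) for 9 days at 37 °C. Viability by CellTiter-Glo luminescence; IC50 from 4-parameter logistic fit of RLU vs concentration.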

Row | pEC50 [2] | pIC50 [3] | SMILES | pIC50 [1]
1 | > 9.00 | 9.00 to 10.00 | CC(=O)N1CCc2c(c(N3CCCc4cc(-c5cnn(C)c5)c(C(F)F)cc43)nn2C2CCN(C3CCN(c4ncc(C(=O)NC5C(C)(C)C(Oc6ccc(C#N)c(Cl)c6)C5(C)C)cn4)CC3)CC2)C1 (stereo not drawn) [Compound 85, 2-[4-[4-[5-acetyl-3-[7-(difluoromethyl)-6-(1-methylpyrazol-4-yl)-3,4-dihydro-2H-quinolin-1-yl]-6,7-dihydro-4H-pyrazolo[4,3-c]pyridin-1-yl]-1-piperidyl]-1-piperidyl]-N-[3-(3-chloro-4-cyano-phenoxy)-2,2,4,4-tetramethyl-cyclobutyl]pyrimidine-5-carboxamide] | < 5.00
2 | > 9.00 | ≥ 10.00 | CNC(=O)N1CCc2c(c(N3CCCc4cc(-c5cnn(C)c5)c(C(F)F)cc43)nn2C2CCN(C(=O)COCC3CCN(c4ncc(C(=O)NC5C(C)(C)C(Oc6ccc(C#N)c(Cl)c6)C5(C)C)cn4)CC3)CC2)C1 (stereo not drawn) [Compound 107, 1-[1-[2-[[1-[5-[[3-(3-chloro-4-cyano-phenoxy)-2,2,4,4-tetramethyl-cyclobutyl]carbamoyl]pyrimidin-2-yl]-4-piperidyl]methoxy]acetyl]-4-piperidyl]-3-[7-(difluoromethyl)-6-(1-methylpyrazol-4-yl)-3,4-dihydro-2H-quinolin-1-yl]-N-methyl-6,7-dihydro-4H-pyrazolo[4,3-c] pyridine-5-carboxamide] | < 5.00
3 | > 9.00 | ≥ 10.00 | CC(=O)N1CCc2c(c(N3CCCc4cc(-c5cnn(C)c5)c(C(F)F)cc43)nn2C2CCN(S(=O)(=O)C3CCN(c4ncc(C(=O)NC5C(C)(C)C(Oc6ccc(C#N)c(Cl)c6)C5(C)C)cn4)CC3)CC2)C1 (stereo not drawn) [Compound 28, 2-[4-[[4-[5-acetyl-3-[7-(difluoromethyl)-6-(1-methylpyrazol-4-yl)-3,4-dihydro-2H-quinolin-1-yl]-6,7-dihydro-4H-pyrazolo[4,3-c]pyridin-1-yl]-1-piperidyl]sulfonyl]-1-piperidyl]-N-[3-(3-chloro-4-cyano-phenoxy)-2,2,4,4-tetramethyl-cyclobutyl]pyrimidine-5-carboxamide] | < 5.00
4 | > 9.00 | ≥ 10.00 | CC(=O)N1CCc2c(c(N3CCCc4cc(-c5cnn(C)c5)c(C(F)F)cc43)nn2C2CCN(CC3CCN(c4ncc(C(=O)NC5C(C)(C)C(Oc6ccc(C#N)c(Cl)c6)C5(C)C)cn4)CC3)CC2)C1 (stereo not drawn) [Compound 84, 2-[4-[[4-[5-acetyl-3-[7-(difluoromethyl)-6-(1-methylpyrazol-4-yl)-3,4-dihydro-2H-quinolin-1-yl]-6,7-dihydro-4H-pyrazolo[4,3-c]pyridin-1-yl]-1-piperidyl]methyl]-1-piperidyl]-N-[3-(3-chloro-4-cyano-phenoxy)-2,2,4,4-tetramethyl-cyclobutyl]pyrimidine-5-carboxamide] | < 5.00

Continued, compound first:

Row | SMILES | pEC50 [2] | pIC50 [3] | pIC50 [1]
5 | CNC(=O)N1CCc2c(c(N3CCCc4cc(-c5cnn(C)c5)c(C(F)F)cc43)nn2C2CCN(C(=O)COC3CCN(c4ncc(C(=O)NC5C(C)(C)C(Oc6ccc(C#N)c(Cl)c6)C5(C)C)cn4)CC3)CC2)C1 (stereo not drawn) [Compound 100, 1-[1-[2-[[1-[5-[[3-(3-chloro-4-cyano-phenoxy)-2,2,4,4-tetramethyl-cyclobutyl]carbamoyl]pyrimidin-2-yl]-4-piperidyl]oxy]acetyl]-4-piperidyl]-3-[7-(difluoromethyl)-6-(1-methylpyrazol-4-yl)-3,4-dihydro-2H-quinolin-1-yl]-N-methyl-6,7-dihydro-4H-pyrazolo[4,3-c]pyridine-5-carboxamide] | > 9.00 | ≥ 10.00 | < 5.00
6 | CC(=O)N1CCc2c(c(N3CCCc4cc(-c5cnn(C)c5)c(C(F)F)cc43)nn2C2CN(C(=O)CN3CCN(c4ncc(C(=O)NC5C(C)(C)C(Oc6ccc(C#N)c(Cl)c6)C5(C)C)cn4)CC3)C2)C1 (stereo not drawn) [Compound 65, 2-[4-[2-[3-[5-acetyl-3-[7-(difluoromethyl)-6-(1-methylpyrazol-4-yl)-3,4-dihydro-2H-quinolin-1-yl]-6,7-dihydro-4H-pyrazolo[4,3-c]pyridin-1-yl]azetidin-1-yl]-2-oxo-ethyl]piperazin-1-yl]-N-[3-(3-chloro-4-cyano-phenoxy)-2,2,4,4-tetramethyl-cyclobutyl]pyrimidine-5-carboxamide] | > 9.00 | ≥ 10.00 | < 5.00
7 | COc1cc(OC2C(C)(C)C(NC(=O)c3ccc(N4CC(C)C(CN5CCC(n6nc(N7CCCc8cc(-c9cnn(C)c9)c(C(F)F)cc87)c7c6CCN(C(C)=O)C7)CC5)C(C)C4)cc3)C2(C)C)ccc1C#N (stereo not drawn) [Compound 327, 4-[4-[[4-[5-acetyl-3-[7-(difluoromethyl)-6-(1-methylpyrazol-4-yl)-3,4-dihydro-2H-quinolin-1-yl]-6,7-dihydro-4H-pyrazolo[4,3-c]pyridin-1-yl]-1-piperidyl]methyl]-3,5-dimethyl-1-piperidyl]-N-[3-(4-cyano-3-methoxy-phenoxy)-2,2,4,4-tetramethyl-cyclobutyl]benzamide] | > 9.00 | 9.00 to 10.00 | < 6.00
8 | CNC(=O)N1CCc2c(c(N3CCCc4cc(-c5cnn(C)c5)c(C(F)F)cc43)nn2C2CCN(C(=O)CN3CCN(c4ccc(C(=O)NC5C(C)(C)C(Oc6ccc(C#N)c(Cl)c6)C5(C)C)cn4)CC3)CC2)C1 (stereo not drawn) [Compound 42, 1-[1-[2-[4-[5-[[3-(3-chloro-4-cyano-phenoxy)-2,2,4,4-tetramethyl-cyclobutyl]carbamoyl]-2-pyridyl]piperazin-1-yl]acetyl]-4-piperidyl]-3-[7-(difluoromethyl)-6-(1-methylpyrazol-4-yl)-3,4-dihydro-2H-quinolin-1-yl]-N-methyl-6,7-dihydro-4H-pyrazolo[4,3-c] pyridine-5-carboxamide] | > 9.00 | ≥ 10.00 | < 5.00
9 | COc1cc(OC2C(C)(C)C(NC(=O)c3ccc(N4CC5(CCC(N6CCC(n7nc(N8CCCc9cc(-c%10cnn(C)c%10)c(C(F)F)cc98)c8c7CCN(C(C)=O)C8)CC6)CC5)C4)cc3)C2(C)C)ccc1C#N (stereo not drawn) [Compound 273, 4-[7-[4-[5-acetyl-3-[7-(difluoromethyl)-6-(1-methylpyrazol-4-yl)-3,4-dihydro-2H-quinolin-1-yl]-6,7-dihydro-4H-pyrazolo[4,3-c]pyridin-1-yl]-1-piperidyl]-2-azaspiro[3.5]nonan-2-yl]-N-[3-(4-cyano-3-methoxy-phenoxy)-2,2,4,4-tetramethyl-cyclobutyl]benzamide] | > 9.00 | ≥ 10.00 | < 6.00
10 | CNC(=O)N1CCc2c(c(N3CCCc4cc(-c5cnn(C)c5)c(C(F)F)cc43)nn2C2CCN(CCc3ncc(C(=O)NC4C(C)(C)C(Oc5ccc(C#N)c(Cl)c5)C4(C)C)cn3)CC2)C1 (stereo not drawn) [Compound 90, 1-[1-[2-[5-[[3-(3-chloro-4-cyano-phenoxy)-2,2,4,4-tetramethyl-cyclobutyl]carbamoyl]pyrimidin-2-yl]ethyl]-4-piperidyl]-3-[7-(difluoromethyl)-6-(1-methylpyrazol-4-yl)-3,4-dihydro-2H-quinolin-1-yl]-N-methyl-6,7-dihydro-4H-pyrazolo[4,3-c]pyridine-5-carboxamide] | > 9.00 | < 7.00 | 5.67
11 | CNC(=O)N1CCc2c(c(N3CCCc4cc(-c5cnn(C)c5)c(C(F)F)cc43)nn2C2CCN(C(=O)CCN3CCN(c4ncc(C(=O)NC5C(C)(C)C(Oc6ccc(C#N)c(Cl)c6)C5(C)C)cn4)CC3)CC2)C1 (stereo not drawn) [Compound 108, 1-[1-[3-[4-[5-[[3-(3-chloro-4-cyano-phenoxy)-2,2,4,4-tetramethyl-cyclobutyl]carbamoyl]pyrimidin-2-yl]piperazin-1-yl]propanoyl]-4-piperidyl]-3-[7-(difluoromethyl)-6-(1-methylpyrazol-4-yl)-3,4-dihydro-2H-quinolin-1-yl]-N-methyl-6,7-dihydro-4H-pyrazolo[4,3-c]pyridine-5-carboxamide] | > 9.00 | ≥ 10.00 | < 5.00
12 | CNC(=O)N1CCc2c(c(N3CCCc4cc(-c5cnn(C)c5)c(C(F)F)cc43)nn2C2CCN(C(=O)COCCOCC3CCN(c4ncc(C(=O)NC5C(C)(C)C(Oc6ccc(C#N)c(Cl)c6)C5(C)C)cn4)CC3)CC2)C1 (stereo not drawn) [Compound 104, 1-[1-[2-[2-[[1-[5-[[3-(3-chloro-4-cyano-phenoxy)-2,2,4,4-tetramethyl-cyclobutyl]carbamoyl]pyrimidin-2-yl]-4-piperidyl]methoxy]ethoxy]acetyl]-4-piperidyl]-3-[7-(difluoromethyl)-6-(1-methylpyrazol-4-yl)-3,4-dihydro-2H-quinolin-1-yl]-N-methyl-6,7-dihydro-4H-pyrazolo[4,3-c]pyridine-5-carboxamide] | > 9.00 | 9.00 to 10.00 | < 5.00
13 | CNC(=O)N1CCc2c(c(N3CCCc4cc(-c5cnn(C)c5)c(C(F)F)cc43)nn2C2CCN(Cc3ncc(C(=O)NC4C(C)(C)C(Oc5ccc(C#N)c(Cl)c5)C4(C)C)cn3)CC2)C1 (stereo not drawn) [Compound 91, 1-[1-[[5-[[3-(3-chloro-4-cyano-phenoxy)-2,2,4,4-tetramethyl-cyclobutyl]carbamoyl]pyrimidin-2-yl]methyl]-4-piperidyl]-3-[7-(difluoromethyl)-6-(1-methylpyrazol-4-yl)-3,4-dihydro-2H-quinolin-1-yl]-N-methyl-6,7-dihydro-4H-pyrazolo[4,3-c]pyridine-5-carboxamide] | < 7.00 | < 7.00 | < 5.00
